Reference: ChEMBL document CHEMBL3813639, “The Halicylindramides, Farnesoid X Receptor Antagonizing Depsipeptides from a Petrosia sp. Marine Sponge Collected in Korea” (J Nat Prod, 2016)
Activity calls are given as the source filed them. The calls are words filed in the database; no cut-off is given here.

What was measured:
[1] = target: T1, Bile acid receptor (Homo sapiens) (UniProt Q96RI1); experiment: Antagonist activity at human FXR expressed in CV-1 cells assessed as inhibition of CDCA-induced receptor transactivation upto 100 uM after 24 hrs by luciferase reporter gene assay; format: cell-based
T1 sequence (whole entry): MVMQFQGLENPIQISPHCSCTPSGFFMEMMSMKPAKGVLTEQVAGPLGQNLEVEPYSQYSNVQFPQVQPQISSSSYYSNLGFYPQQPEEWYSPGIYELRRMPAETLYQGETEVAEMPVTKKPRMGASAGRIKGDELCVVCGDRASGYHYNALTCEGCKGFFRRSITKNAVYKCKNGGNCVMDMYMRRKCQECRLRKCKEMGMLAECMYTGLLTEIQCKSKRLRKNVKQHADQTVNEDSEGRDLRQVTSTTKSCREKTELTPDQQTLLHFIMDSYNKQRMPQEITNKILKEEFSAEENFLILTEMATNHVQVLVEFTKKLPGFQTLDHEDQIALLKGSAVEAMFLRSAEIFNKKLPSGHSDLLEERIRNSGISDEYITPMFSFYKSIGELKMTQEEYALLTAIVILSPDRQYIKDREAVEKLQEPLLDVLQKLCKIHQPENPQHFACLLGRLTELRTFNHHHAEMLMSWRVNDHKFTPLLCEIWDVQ

HepG2 = experiment: cells; conditions: Homo sapiens, HepG2, 24 h
Description: Cytotoxicity against human HepG2 cells after 24 hrs by MTT assay

Bile acid receptor = target: T2, Bile acid receptor (Homo sapiens, UniProt Q96RI1); experiment: Antagonist activity at human FXR expressed in CV-1 cells assessed as inhibition of CDCA-induced receptor transactivation after 24 hrs by luciferase reporter gene assay; format: cell-based
T2 sequence (Q96RI1 whole entry): T1 sequence (whole entry)

[2] = system: Human immunodeficiency virus 1; experiment: Antiviral activity against HIV1 3B infected in human PBMC cells assessed as reduction in reverse transcriptase activity after 5 days by XTT assay; format: functional, organism-based; conditions: Human immunodeficiency virus 1, 3B, 120 h
Mus musculus = experiment: Antiinflammatory activity in Swiss mouse assessed as inhibition of carrageenan-induced paw edema at 0.3 mg/kg, ip by hydroplethismometer; format: functional
[3] = system: Human immunodeficiency virus 1; experiment: Antiviral activity against HIV1 RF assessed as inhibition of viral infection in human T-lymphoblastoid cells; format: functional, organism-based; conditions: Human immunodeficiency virus 1, RF
MCF7 = experiment: Antiproliferative activity against human MCF7 cells after 20 hrs by microculture tetrazolium assay; format: functional; conditions: MCF7, 20 h, read-out: ED50 (the source's name)

SMILES | IC50 (HepG2) [µM] | IC50 (Bile acid receptor) [µM] | further results
CC(C)[C@@H](NC(=O)[C@H]1CCCN1C(=O)[C@H](Cc1ccc(Br)cc1)NC(=O)[C@@H](C)NC=O)C(=O)N[C@H](C(=O)N[C@H](C[C@@]1(O)C(=O)Nc2ccccc21)C(=O)N[C@@H](CCCNC(=N)N)C(=O)N[C@H](CS(=O)(=O)O)C(=O)N[C@H]1C(=O)N(C)[C@H](CCC(N)=O)C(=O)N[C@@H](Cc2ccccc2)C(=O)N[C@H]([C@H](C)O)C(=O)N[C@H](CC(N)=O)C(=O)N(C)CC(=O)O[C@@H]1C)C(C)(C)C | 100 | – | inhibition [1]: inactive
CC(C)[C@@H](NC(=O)[C@H]1CCCN1C(=O)[C@H](Cc1ccccc1)NC(=O)[C@@H](C)NC=O)C(=O)N[C@H](C(=O)N[C@H](Cc1c[nH]c2ccccc12)C(=O)N[C@@H](CCCNC(=N)N)C(=O)N[C@H](CS(=O)(=O)O)C(=O)N[C@H]1C(=O)N(C)[C@H](CCC(N)=O)C(=O)N[C@@H](Cc2ccccc2)C(=O)N[C@H]([C@H](C)O)C(=O)N[C@H](CC(N)=O)C(=O)N(C)CC(=O)O[C@@H]1C)C(C)(C)C | 100 | 6 | –
CC[C@@H](C)C[C@@H](C)[C@@H](O)[C@@H](C)C(=O)N[C@H](CCCN)C(=O)N[C@@H](CCC(=O)O)[C@@H](O)[C@@H](O)C(=O)N[C@H](C(=O)N[C@H]1C(=O)N[C@H](CO)C(=O)N[C@H](CCCN)C(=O)N[C@@H](CC(C)C)C(=O)N(C)[C@@H](CCC(N)=O)C(=O)N[C@@H]([C@@H](C)OC)C(=O)N[C@H](CC(=O)O)C(=O)N2CCCC[C@H]2C(=O)O[C@@H]1[C@H](C)C(C)C)[C@@H](C)[C@@H](C)C(N)=O | – | – | IC50 [2]: 0.075 µM
COc1cccc2c1C(=O)c1c(O)c3c(c(O)c1C2=O)C[C@@](O)(C(=O)CO)C[C@@H]3O[C@H]1C[C@H](N)[C@H](O)[C@H](C)O1 [DOXORUBICIN] | 2.1 | – | –
CCC[C@@H](CC[C@@H](C)[C@@H]1OC(=O)[C@H](C)NC(=O)[C@H]([C@@H](C)CCO)N(C)C(=O)[C@]2(C)CSC(=N2)[C@H](C)NC(=O)C1(C)C)OC | – | – | inhibition in vivo at 0.3 mg/kg (Mus musculus): 60%
CC(C)[C@@H](NC(=O)[C@@H]1CCCN1C(=O)[C@H](Cc1ccc(Br)cc1)NC(=O)[C@@H](C)NC=O)C(=O)N[C@H](C(=O)N[C@H](Cc1c[nH]c2ccccc12)C(=O)N[C@@H](CCCNC(=N)N)C(=O)N[C@H](CS(=O)(=O)O)C(=O)N[C@@H]1C(=O)N(C)[C@@H](CCC(N)=O)C(=O)N[C@H](Cc2ccccc2)C(=O)N[C@@H]([C@@H](C)O)C(=O)N[C@@H](CC(N)=O)C(=O)N(C)CC(=O)O[C@@H]1C)C(C)(C)C | 100 | 5 | –
CCC(C)/C=C(C)/C=C\C(O)C(C)(O)C(=O)NCC(=O)N[C@@H](C(=O)N[C@H](C(=O)N[C@H](C(=O)N[C@H]1C(=O)N[C@H](COC)C(=O)NCC(=O)N[C@@H](C)CN(C)[C@H]([C@@H](C)O)CNC(C(OC)c2ccc(O)cc2)C(=O)N2CCCC[C@H]2C(=O)O[C@@H]1C(C)C)[C@@H](C)[C@@H](C)C(N)=O)[C@H](C)N)[C@@H](C)O (stereo not given in full) | – | – | EC50 [3]: 0.0026 µM
CC(C)[C@@H](NC(=O)[C@H]1CCCN1C(=O)[C@H](Cc1ccc(Br)cc1)NC(=O)[C@@H](C)NC=O)C(=O)N[C@H](C(=O)N[C@H](C[C@]1(O)C(=O)Nc2ccccc21)C(=O)N[C@@H](CCCNC(=N)N)C(=O)N[C@H](CS(=O)(=O)O)C(=O)N[C@H]1C(=O)N(C)[C@H](CCC(N)=O)C(=O)N[C@@H](Cc2ccccc2)C(=O)N[C@H]([C@H](C)O)C(=O)N[C@H](CC(N)=O)C(=O)N(C)CC(=O)O[C@@H]1C)C(C)(C)C | 100 | – | inhibition [1]: inactive
CN[C@H](C(=O)N[C@H](C(=O)N(C)[C@H](/C=C(\C)C(=O)O)C(C)C)C(C)(C)C)C(C)(C)c1cn(C)c2ccccc12 [HEMIASTERLIN] | – | – | EC50 (MCF7): 0.0005 µM
CC(C)[C@H](NC(=O)[C@H](NC(=O)[C@@H]1CCCN1C(=O)[C@H](Cc1ccc(Br)cc1)NC(=O)[C@@H](C)NC=O)C(C)C)C(=O)N[C@H](Cc1c[nH]c2ccccc12)C(=O)N[C@@H](CCCNC(=N)N)C(=O)N[C@H](CS(=O)(=O)O)C(=O)N[C@@H]1C(=O)N(C)[C@@H](CCC(N)=O)C(=O)N[C@H](Cc2ccccc2)C(=O)N[C@@H]([C@@H](C)O)C(=O)N[C@@H](CC(N)=O)C(=O)N(C)CC(=O)O[C@@H]1C | 20 | 0.5 | –
